Active and inactive are the calls of the source.
Experiments:
[1] = CNS toxicity in naive ICR mouse assessed as motor coordination at 5 mg/kg, ip measured after 240 mins by rotarod test; assay type: organism-based; conditions: in vivo, 4 h
[2] = CNS toxicity in naive ICR mouse assessed as reduction in spontaneous locomotor activity by measuring reduction in climbing behaviour at 5 mg/kg, ip and measured for 30 mins by LABORAS automated behavioral analysis; assay type: organism-based; conditions: in vivo, 0.5 h
[3] = CNS toxicity in naive ICR mouse assessed as reduction in spontaneous locomotor activity by measuring reduction in climbing behaviour at 5 mg/kg, ip and measured for 2 hrs by LABORAS automated behavioral analysis; assay type: organism-based; conditions: in vivo
[4] = CNS toxicity in naive ICR mouse assessed as reduction in spontaneous locomotor activity at 5 mg/kg, ip and measured for 2 hrs by LABORAS automated behavioral analysis; assay type: organism-based; conditions: in vivo
[5] = CNS toxicity in naive ICR mouse assessed as reduction in spontaneous locomotor activity by measuring reduction in animal's movement speed in arena at 5 mg/kg, ip and measured for 2 hrs by LABORAS automated behavioral analysis; assay type: organism-based; conditions: in vivo
[6] = CNS toxicity in naive ICR mouse assessed as reduction in spontaneous locomotor activity by measuring reduction in animal's movement speed in arena at 5 mg/kg, ip and measured for 30 mins by LABORAS automated behavioral analysis; assay type: organism-based; conditions: in vivo, 0.5 h
[7] = CNS toxicity in naive ICR mouse assessed as reduction in spontaneous locomotor activity by measuring increase in immobility behaviour at 5 mg/kg, ip and measured for 30 mins by LABORAS automated behavioral analysis; assay type: organism-based; conditions: in vivo, 0.5 h
[8] = CNS toxicity in naive ICR mouse assessed as reduction in spontaneous locomotor activity by measuring reduction in rearing behaviour at 5 mg/kg, ip and measured for 30 mins by LABORAS automated behavioral analysis; assay type: organism-based; conditions: in vivo, 0.5 h
[9] = CNS toxicity in naive ICR mouse assessed as reduction in spontaneous locomotor activity by measuring reduction in rearing behaviour at 5 mg/kg, ip and measured for 2 hrs by LABORAS automated behavioral analysis; assay type: organism-based; conditions: in vivo
[10] = CNS toxicity in naive ICR mouse assessed as reduction in spontaneous locomotor activity by measuring reduction in distance travelled in arena at 5 mg/kg, ip and measured for 30 mins by LABORAS automated behavioral analysis; assay type: organism-based; conditions: in vivo, 0.5 h
[11] = CNS toxicity in naive ICR mouse assessed as reduction in spontaneous locomotor activity at 5 mg/kg, ip and measured for 30 mins by LABORAS automated behavioral analysis; assay type: organism-based; conditions: in vivo, 0.5 h
[12] = CNS toxicity in naive ICR mouse assessed as reduction in spontaneous locomotor activity by measuring reduction in distance travelled in arena at 5 mg/kg, ip and measured for 2 hrs by LABORAS automated behavioral analysis; assay type: organism-based; conditions: in vivo
[13] = CNS toxicity in naive ICR mouse assessed as reduction in rotarod latency time at 5 mg/kg, ip measured at <240 mins by rotarod test; assay type: organism-based; conditions: in vivo, 4 h
[14] = CNS toxicity in naive ICR mouse assessed as reduction in spontaneous locomotor activity by measuring increase in immobility behaviour at 5 mg/kg, ip and measured for 2 hrs by LABORAS automated behavioral analysis; assay type: organism-based; conditions: in vivo
Mus musculus [15] = test: (§1) Anti-inflammatory activity against LPS-induced inflammatory pain-like behaviour ICR mouse model assessed as improvement in locomotor activity by measuring increase in distance travelled in LABORAS arena at 10 mg/kg, ip treated with LPS for 2 hrs followed by drug administration for 1 hr and measured for 5 mins by LABORAS analysis; assay type: functional, organism-based; conditions: time 65.0 min
Mus musculus [16] = test: as §1, with “animal's movement speed” for “distance travelled”; assay type: functional, organism-based; conditions: time 65.0 min
Mus musculus [17] = test: Anti-inflammatory activity against LPS-induced inflammatory pain-like behaviour ICR mouse model assessed as reduction in TNF-alpha levels in plasma at 10 mg/kg, ip treated with LPS for 2 hrs followed by drug administration for 1 hr by ELISA; assay type: functional, organism-based
Mus musculus [18] = test: as §1, with “increased mobile behaviours” for “increase in distance travelled in LABORAS arena”; assay type: functional, organism-based; conditions: time 65.0 min
Mus musculus [19] = test: Analgesic activity against formalin-induced inflammatory pain-like behaviour ICR mouse model assessed as inhibition of hind paw licking behaviour at 10 mg/kg, ip administered 60 mins prior to formalin challenge and measured after 10 to 40 mins by formalin test; assay type: functional; conditions: time 70-100 min
Mus musculus [20] = test: as §1, with “decrease” for “increase”, “immobility behaviour” for “distance travelled in LABORAS arena”; assay type: functional, organism-based; conditions: time 65.0 min
Mus musculus [21] = test: Anti-inflammatory activity against LPS-induced inflammatory pain-like behaviour ICR mouse model assessed as reduction in IL-6 levels in plasma at 10 mg/kg, ip treated with LPS for 2 hrs followed by drug administration for 1 hr by ELISA; assay type: functional, organism-based

CN(C)CCCN1c2ccccc2Sc2ccc(Cl)cc21 [CHLORPROMAZINE]
Non-Toxic: Activity [1]
Toxic: Activity [2] | Activity [3] | Activity [4] | Activity [5] | Activity [6] | Activity [7] | Activity [8] | Activity [9] | Activity [10] | Activity [11] | Activity [12] | Activity [13] | Activity [14]

COc1ccc2c(c1)c(CC(=O)O)c(C)n2C(=O)c1ccc(Cl)cc1 [INDOMETHACIN]
active: Activity (Mus musculus [15]) | Activity (Mus musculus [16]) | Activity (Mus musculus [17]) | Activity (Mus musculus [18]) | Activity (Mus musculus [20]) | Activity (Mus musculus [21])
71.6%: inhibition in vivo at 10 mg/kg (Mus musculus [19])
